From patent US7250401B2, “Therapeutic compositions” (Advanced Therapeutics and Diagnostics, LC, priority 2001, dated 2007)

Test: Reaction with thionitrobenzoate (detection of thiol-reactive substances, loss of absorbance at 412 nm)
Assay type: physicochemical
Conditions: for rate of reaction with thionitrobenzoate: aqueous solution at pH 7 and 25° C.
Description: A stock solution of 5-thio-2-nitrobenzoate (hereafter referred to as thionitrobenzoate) was prepared by reduction of 5,5′-dithiobis(2-nitrobenzoic acid) (hereafter referred to as DTNB, Aldrich Chemical Company). This stock solution was prepared by mixing 0.1 ml of 0.1 M DTNB dissolved in ethanol (396 mg of DTNB in 10 ml of ethanol), 0.1 ml of 1 M aqueous potassium phosphate buffer (prepared by mixing equal volumes of 1 M monobasic potassium phosphate with 1 M dibasic potassium phosphate), and 0.025 ml of 1 M sodium borohydride dissolved in 1 M NaOH on ice. After incubating this mixture for 10 minutes at ice temperature, 0.1 mL of 1 M monobasic potassium phosphate was added and the resultant solution was diluted to a final volume of 2 ml by addition of 1.675 ml of water.
An alternate method for preparation of a stock solution of thionitrobenzoate involves the use of 2-mercaptoethanol as reductant, in place of sodium borohydride. In this method a 10 mM solution of DTNB was prepared by mixing 39.6 mg of DTNB with 17 mg of sodium bicarbonate and 4 ml of ice-cold water. After allowing the effervescence to subside, this solution was mixed with 0.01 ml of 0.5 M trisodium ethylenediaminetetracetate and 0.1 ml of 1 M potassium phosphate buffer, then diluted to a final volume of 10 ml with water. A separate stock of 10 mM 2-mercaptoethanol was prepared by dilution of neat 2-mercaptoethanol (14.3 M) with water (serial dilution of 0.01 ml of neat 2-mercaptoethanol to 1 ml to give 0.143 M and then dilution of 0.07 ml of this solution to a final volume of 1 ml to give 10 mM). The stock of 8.7 mM thionitrobenzoate was prepared by mixing 2 ml of 1 M potassium phosphate buffer with 0.2 ml of 10 mM 2-mercaptoethanol and 0.1 ml of 10 mM aqueous DTNB.
If 0.01 ml of the 10 mM stock of thionitrobenzoate, obtained by sodium borohydride reduction of DTNB, was diluted with 0.89 ml of water and 0.1 ml of 1 M phosphate buffer, it gave an absorbance at 412 nm of 1.36 in a 1 cm pathlength cuvette. If 0.01 ml of the 8.7 mM stock of thionitrobenzoate obtained by 2-mercaptoethanol reduction of DTNB was diluted with 0.89 ml of water and 0.1 ml of 1 M phosphate buffer, it gave an absorbance at 412 nm of 1.18 in a 1 cm pathlength cuvette. […] (4 M^−1 s^−1).
(<0.05 M^−1 s^−1). DECOSMe (EXAMPLE 4) reacted with thionitrobenzoate under these conditions at a rate of 4 M^−1 s^−1. DETC-MeSO2 (EXAMPLE 5) reacted with thionitrobenzoate under these conditions at a rate of 0.4 M^−1 s^−1. S-Methyl-O-(N,N-diethylcarbamoyl)sulfinate (DECO2SMe, prepared by rearrangement of DETC-MeSO2 under the conditions described in EXAMPLE 4) reacted with thionitrobenzoate under these conditions at a rate of 14 M^−1 s^−1.

SMILES | rate of reaction with thionitrobenzoate | half time of first-order decay of absorbance at 412 nm (0.01 ml of 0.1 M aqueous solution added to thionitrobenzoate assay mixture, 25° C.) | rate of reaction with thionitrobenzoate (from first-order decay of absorbance at 412 nm) (0.01 ml of 0.1 M aqueous solution added, 25° C.) | rate of reaction with thionitrobenzoate, prior to rearrangement to DECOSMe (0.01 ml of 5 mM aqueous solution, freshly synthesized, anaerobic conditions, up to 24 hours)
CCN(CC)C(=O)OS(C)=O (stereo not drawn) [DECO2SMe, S-Methyl-O-(N,N-diethylcarbamoyl)sulfinate] | 14 M⁻¹ s⁻¹ | – | – | –
CCN(CC)C(=O)OSC [DECOSMe, S-Methyl-O-(N,N-Diethylcarbamoyl)Sulfenate] | 4 M⁻¹ s⁻¹ | 2.9 min | 4 M⁻¹ s⁻¹ | –
CCN(CC)C(=O)S(C)(=O)=O [DETC-MeSO2, S-Methyl-N,N-Diethylthiolcarbamate Sulfone] | 0.4 M⁻¹ s⁻¹ | – | – | –
CCN(CC)C(=O)[S+](C)[O-] (stereo not drawn) [DETC-MeSO, S-Methyl-N,N-Diethylthiolcarbamate Sulfoxide] | – | – | – | less than 0.01 M^−1 s^−1
